Test results taken from US12685726B2, “Sulfoximines as inhibitors of NaV1.8” (Gruenenthal GmbH, priority 2022, dated 2026).
pIC50: −log10 of the molar value.

Target: T1, human NaV 1.8 (Homo sapiens, UniProt Q9Y5Y9)
T1 construct: expressed in transfected cells; host or cells: HEK (recombinant cell line)
Test: Automated whole-cell patch clamp (Qube384) voltage-clamp recordings of sodium currents in HEK-NaV1.8 cell line
Format: cell-based
Settings: read-out: Potency category (human NaV 1.8 IC50)
Method in brief: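 HEK cells expressing NaV1.8 with b3, whole-cell automated voltage clamp at room temperature or 19° C.; CsF-based internal, pH 7.4 external. State-dependent (−120 mV, V1/2 4 s, −10 mV test pulses) and 10/20 Hz 40-pulse protocols; ~12 min compound, vehicle-corrected, IC50 by 4-parameter logistic fit.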

T1 sequence (Q9Y5Y9 whole entry): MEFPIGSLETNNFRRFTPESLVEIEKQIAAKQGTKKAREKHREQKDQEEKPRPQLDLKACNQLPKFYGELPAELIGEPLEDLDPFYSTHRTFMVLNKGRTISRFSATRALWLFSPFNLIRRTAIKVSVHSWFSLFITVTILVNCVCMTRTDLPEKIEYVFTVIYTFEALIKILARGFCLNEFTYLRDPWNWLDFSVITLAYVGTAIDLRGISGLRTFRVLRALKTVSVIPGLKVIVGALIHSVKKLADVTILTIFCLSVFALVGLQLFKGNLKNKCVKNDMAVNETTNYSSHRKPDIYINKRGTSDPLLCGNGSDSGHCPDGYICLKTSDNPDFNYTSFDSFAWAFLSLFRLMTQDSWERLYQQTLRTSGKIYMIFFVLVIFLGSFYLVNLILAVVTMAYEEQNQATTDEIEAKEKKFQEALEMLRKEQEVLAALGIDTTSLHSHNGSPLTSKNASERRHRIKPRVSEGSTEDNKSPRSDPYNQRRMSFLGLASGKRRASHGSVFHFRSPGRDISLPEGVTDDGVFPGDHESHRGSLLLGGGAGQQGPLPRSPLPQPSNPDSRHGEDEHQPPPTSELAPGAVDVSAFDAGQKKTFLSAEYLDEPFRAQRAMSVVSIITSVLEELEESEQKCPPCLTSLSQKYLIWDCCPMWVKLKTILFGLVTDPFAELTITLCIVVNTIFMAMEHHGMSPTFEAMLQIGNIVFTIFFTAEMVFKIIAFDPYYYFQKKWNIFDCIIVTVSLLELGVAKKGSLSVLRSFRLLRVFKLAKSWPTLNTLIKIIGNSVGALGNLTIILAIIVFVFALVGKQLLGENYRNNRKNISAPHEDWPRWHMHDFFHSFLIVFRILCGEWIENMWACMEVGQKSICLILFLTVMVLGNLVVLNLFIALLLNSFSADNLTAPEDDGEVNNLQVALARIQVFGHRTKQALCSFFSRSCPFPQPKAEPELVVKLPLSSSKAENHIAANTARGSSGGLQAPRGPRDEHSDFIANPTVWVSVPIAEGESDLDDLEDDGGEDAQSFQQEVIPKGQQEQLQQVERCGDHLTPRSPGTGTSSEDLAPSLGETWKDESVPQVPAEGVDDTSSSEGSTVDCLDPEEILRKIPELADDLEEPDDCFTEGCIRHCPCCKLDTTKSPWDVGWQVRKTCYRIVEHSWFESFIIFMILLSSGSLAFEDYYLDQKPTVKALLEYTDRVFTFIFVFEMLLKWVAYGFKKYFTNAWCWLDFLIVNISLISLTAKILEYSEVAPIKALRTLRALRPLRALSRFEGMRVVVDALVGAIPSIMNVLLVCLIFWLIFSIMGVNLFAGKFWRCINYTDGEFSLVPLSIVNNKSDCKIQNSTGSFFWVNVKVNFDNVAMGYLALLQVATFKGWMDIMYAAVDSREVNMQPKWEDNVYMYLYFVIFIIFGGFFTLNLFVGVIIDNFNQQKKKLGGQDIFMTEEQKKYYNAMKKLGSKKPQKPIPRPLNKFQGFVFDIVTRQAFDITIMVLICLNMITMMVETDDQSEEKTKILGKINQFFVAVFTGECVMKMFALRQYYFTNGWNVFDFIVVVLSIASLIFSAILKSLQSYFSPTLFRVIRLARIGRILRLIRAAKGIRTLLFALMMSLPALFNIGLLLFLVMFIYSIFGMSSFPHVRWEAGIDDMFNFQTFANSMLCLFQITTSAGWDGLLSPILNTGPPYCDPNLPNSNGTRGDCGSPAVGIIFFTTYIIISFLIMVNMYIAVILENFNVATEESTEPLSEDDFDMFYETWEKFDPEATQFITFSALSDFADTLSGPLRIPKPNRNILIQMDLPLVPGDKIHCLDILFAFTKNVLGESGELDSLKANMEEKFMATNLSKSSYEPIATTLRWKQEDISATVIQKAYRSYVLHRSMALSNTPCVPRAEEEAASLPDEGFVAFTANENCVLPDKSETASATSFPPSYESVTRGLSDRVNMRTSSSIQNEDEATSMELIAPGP

| pIC50 | SMILES |
| --- | --- |
| ≥ 7.00 | CC1(Cn2nc(C3(F)CC3)c(C(F)(F)F)c2C(=O)Nc2cccc(S(C)(=N)=O)c2)CC(F)(F)C1 (single isomer, unassigned) [Example 109a, 1-((3,3-Difluoro-1-methylcyclobutyl)methyl)-3-(1-fluorocyclopropyl)-N-(3-(S-methylsulfonimidoyl)phenyl)-4-(trifluoromethyl)-1H-pyrazole-5-carboxamide] |
| ≥ 7.00 | CS(=N)(=O)c1cc(NC(=O)c2c(C(F)(F)F)c(C3CC3)nn2CC2C(F)(F)C23CCC3)ccn1 (single isomer, unassigned) [Example 136a, 3-Cyclopropyl-1-((2,2-difluorospiro[2.3]hexan-1-yl)methyl)-N-(2-(S-methylsulfonimidoyl)pyridin-4-yl)-4-(trifluoromethyl)-1H-pyrazole-5-carboxamide] |
| ≥ 7.00 | CS(=N)(=O)c1cc(NC(=O)c2c(C(F)(F)F)c(C3CC3)nn2CC2(F)CC3(CCC3)C2)ccn1 (single isomer, unassigned) [Example 21a, 3-cyclopropyl-1-((2-fluorospiro[3.3]heptan-2-yl)methyl)-N-(2-(S-methylsulfonimidoyl)pyridin-4-yl)-4-(trifluoromethyl)-1H-pyrazole-5-carboxamide] |
| ≥ 7.00 | CC1(Cn2nc(C3CC3)c(C(F)(F)F)c2C(=O)Nc2cccc(S(C)(=N)=O)c2)CC(F)(F)C1 (single isomer, unassigned) [Example 45b, 3-cyclopropyl-1-((3,3-difluoro-1-methylcyclobutyl)methyl)-N-(3-(S-methylsulfonimidoyl)phenyl)-4-(trifluoromethyl)-1H-pyrazole-5-carboxamide] |
| ≥ 7.00 | C[C@@H]1C[C@H]1c1nn(CC2(C)CC(F)(F)C2)c(C(=O)Nc2ccnc([S@](C)(=N)=O)c2)c1C(F)(F)F (single isomer, unassigned) [Example 65c, 1-((3,3-Difluoro-1-methylcyclobutyl)methyl)-3-((trans)-2-methylcyclopropyl)-N-(2-(S-methylsulfonimidoyl)pyridin-4-yl)-4-(trifluoromethyl)-1H-pyrazole-5-carboxamide] |
| ≥ 7.00 | CC1(Cn2nc(C3(F)CC3)c(C(F)(F)F)c2C(=O)Nc2ccc(F)c(S(C)(=N)=O)c2)CC(F)(F)C1 (single isomer, unassigned) [Example 126b, 1-((3,3-Difluoro-1-methylcyclobutyl)methyl)-N-(4-fluoro-3-(S-methylsulfonimidoyl)phenyl)-3-(1-fluorocyclopropyl)-4-(trifluoromethyl)-1H-pyrazole-5-carboxamide] |
| ≥ 7.00 | CC1(Cn2nc(C(C)(C)F)c(C(F)(F)F)c2C(=O)Nc2ccnc(S(C)(=N)=O)c2)CC(F)(F)C1 (single isomer, unassigned) [Example 148b, 1-((3,3-Difluoro-1-methylcyclobutyl)methyl)-3-(2-fluoropropan-2-yl)-N-(2-(S-methylsulfonimidoyl)pyridin-4-yl)-4-(trifluoromethyl)-1H-pyrazole-5-carboxamide] |
| ≥ 7.00 | CS(=N)(=O)c1cc(NC(=O)c2c(C(F)(F)F)c(C3CC3)nn2CC2C3(CC3)C23CC3)ccn1 (single isomer, unassigned) [Example 80b, 3-cyclopropyl-1-(dispiro[2.0.24.13]heptan-7-ylmethyl)-N-(2-(S-methylsulfonimidoyl)pyridin-4-yl)-4-(trifluoromethyl)-1H-pyrazole-5-carboxamide] |
| ≥ 7.00 | CS(=N)(=O)c1cc(NC(=O)c2c(C(F)(F)F)c(C3CC3)nn2CC2(C(F)(F)F)CCCC2)ccn1 (single isomer, unassigned) [Example 98a, 3-cyclopropyl-N-(2-(S-methylsulfonimidoyl)pyridin-4-yl)-4-(trifluoromethyl)-1-((1-(trifluoromethyl)cyclopentyl)methyl)-1H-pyrazole-5-carboxamide] |
| ≥ 7.00 | CC1(Cn2nc(C3CC34CC4)c(C(F)(F)F)c2C(=O)Nc2ccnc(S(C)(=N)=O)c2)CC(F)(F)C1 (single isomer, unassigned) [Example 64a, 1-((3,3-difluoro-1-methylcyclobutyl)methyl)-N-(2-(S-methylsulfonimidoyl)pyridin-4-yl)-3-(spiro[2.2]pentan-1-yl)-4-(trifluoromethyl)-1H-pyrazole-5-carboxamide] |
| ≥ 7.00 | COC1(c2nn(CC3(C)CC(F)(F)C3)c(C(=O)Nc3ccnc(S(C)(=N)=O)c3)c2C(F)(F)F)CC1 (single isomer, unassigned) [Example 71b, 1-((3,3-difluoro-1-methylcyclobutyl)methyl)-3-(1-methoxycyclopropyl)-N-(2-(S-methylsulfonimidoyl)pyridin-4-yl)-4-(trifluoromethyl)-1H-pyrazole-5-carboxamide] |
| ≥ 7.00 | CS(=N)(=O)c1cc(NC(=O)c2c(C(F)(F)F)c(C3CC3)nn2CC23CCC(F)(CC2)C3)ccn1 (single isomer, unassigned) [Example 106b, 3-cyclopropyl-1-((4-fluorobicyclo[2.2.1]heptan-1-yl)methyl)-N-(2-(S-methylsulfonimidoyl)pyridin-4-yl)-4-(trifluoromethyl)-1H-pyrazole-5-carboxamide] |
| ≥ 7.00 | CC1(Cn2nc(C3(F)CC3)c(C(F)(F)F)c2C(=O)Nc2cccc([S@](C)(=O)=NC(=O)CO)c2)CC(F)(F)C1 [Example 151b] |
| ≥ 7.00 | Cc1c(C(C)(F)F)nn(CC2(C)CC(F)(F)C2)c1C(=O)Nc1ccnc(S(C)(=N)=O)c1 (single isomer, unassigned) [Example 5a, 1-((3,3-difluoro-1-methylcyclobutyl)methyl)-3-(1,1-difluoroethyl)-4-methyl-N-(2-(S-methylsulfonimidoyl)pyridin-4-yl)-1H-pyrazole-5-carboxamide] |
| ≥ 7.00 | CN=S(C)(=O)c1cc(NC(=O)c2c(C)c(C(C)(F)F)nn2CC2(C)CC(F)(F)C2)ccn1 (single isomer, unassigned) [Example 34a, 1-((3,3-Difluoro-1-methylcyclobutyl)methyl)-3-(1,1-difluoroethyl)-N-(2-(N,S-dimethylsulfonimidoyl)pyridin-4-yl)-4-methyl-1H-pyrazole-5-carboxamide] |
| ≥ 7.00 | CC1(Cn2nc(C3CC(F)(F)C3)c(C(F)(F)F)c2C(=O)Nc2ccnc(S(C)(=N)=O)c2)CC(F)(F)C1 (single isomer, unassigned) [Example 57a, 1-((3,3-Difluoro-1-methylcyclobutyl)methyl)-3-(3,3-difluorocyclobutyl)-N-(2-(S-methylsulfonimidoyl)pyridin-4-yl)-4-(trifluoromethyl)-1H-pyrazole-5-carboxamide] |
| ≥ 7.00 | CC1(Cn2nc(C3CC3(F)F)c(C(F)(F)F)c2C(=O)Nc2ccnc(S(C)(=N)=O)c2)CC(F)(F)C1 (single isomer, unassigned) [Example 63a, 1-((3,3-Difluoro-1-methylcyclobutyl)methyl)-3-(2,2-difluorocyclopropyl)-N-(2-(S-methylsulfonimidoyl)pyridin-4-yl)-4-(trifluoromethyl)-1H-pyrazole-5-carboxamide] |
| ≥ 7.00 | C[C@@]1(Cn2nc(C3CC3)c(C(F)(F)F)c2C(=O)Nc2ccnc([S@@](C)(=N)=O)c2)CC(F)(F)C12CC2 (single isomer, unassigned) [Example 92d, 3-cyclopropyl-1-((6,6-difluoro-4-methylspiro[2.3]hexan-4-yl)methyl)-N-(2-(S-methylsulfonimidoyl)pyridin-4-yl)-4-(trifluoromethyl)-1H-pyrazole-5-carboxamide] |
